This is an account of results in patent US10081635B2, “Substituted N-(pyrrolidine-3-yl)-7H-pyrrolo[2,3-D]pyrimidine-4-amine as janus kinase inhibitor” (YANG JI CHEMICAL CO., LTD., priority 2014, dated 2018).

What is called inhibition is the drop in the measured response relative to a control, in per cent.

Common to all, as to type: biochemical
For one experiment, the target named is Human JAK1 (Homo sapiens (Human), UniProt P23458). Nature of the experiment: In vitro kinase inhibition test, JAK1 (33P-ATP filter scintillation). Particulars: compound at 1 uM; read-out: JAK1 kinase-phosphorylation inhibitory level (% inhibition). How it is done: (§1) 1. In Vitro Kinase Inhibition Test
(§2) Kinases used were human-derived JAK1, JAK2, JAK3, and TYK2 (Millipore, Germany). Each of these kinases was diluted with a suitable buffer solution as described below, and then mixed with reagents.
Tris(hydroxymethyl)aminomethane (TRIS) and ethylenediaminetetraacetic acid (EDTA) were dissolved in distilled water at a concentration of 20 mM and 0.2 mM, respectively, and 100 uL of β-mercaptoethanol, 10 uL of Brij-35™, and 5 mL of glycerol, each per 100 mL of the solution, were added to the solution, thereby preparing a JAK1 dilution buffer solution.
(§3) Each compound was dissolved in a 100% DMSO solution at a 50 uM concentration. This solution was reacted with reagents in wells on a 96-well plate to reach a final concentration of 1 uM. Detailed experimental methods for each kinase are described below.
After reaction for about 40 minutes at room temperature, the reaction was stopped by adding 5 uL of a 3% (v/v) phosphoric acid solution. […] The methanol drying is a drying process using an azeotropic effect, wherein methanol is added into an aqueous solution for drying.
(§4) In Tables 5 and 6, the numbers in the “Example” column, which are identification numbers of the examples, indicate the compounds synthesized in the corresponding examples, the values in the “JAK1”, “JAK2”, “JAK3”, and “TYK2” columns represent kinase-phosphorylation inhibitory levels as a percentage (%) of the compounds synthesized in the corresponding examples at a 1 uM concentration. In Tables 5 and 6, negative values substantially indicate no inhibitory effect.
(§5) The inhibitory levels (% inhibition) represent a percentage of reduction in phosphorylation activity in each test group with respect to the phosphorylation activity of a corresponding kinase in a negative control group lacking any of the compounds synthesized in the examples. % inhibition=[(Scintillation value of Test compound non-treatment group−Scintillation value of Test compound treatment group)/(Scintillation value of Test compound non-treatment group)]×100

The target in the next experiment is Human TYK2 (Homo sapiens (Human), UniProt P29597). Nature of the experiment: In vitro kinase inhibition test, TYK2 (33P-ATP filter scintillation). Particulars: compound at 1 uM; read-out: TYK2 kinase-phosphorylation inhibitory level (% inhibition). The method, then: as §1, §2
(§6) 3-morpholinopropane-1-sulfonic acid (MOPS) and EDTA were dissolved in distilled water at a concentration of 20 mM and 1 mM, respectively, and 100 uL of β-mercaptoethanol, 10 uL of Brij-35™, 5 mL of glycerol, and 100 mg of bovine serum albumin (BSA), each per 100 mL of the solution, were added to the solution, thereby preparing a JAK2, JAK3, and TYK2 dilution buffer solution.
as §3
(§7) After reaction for about 40 minutes at room temperature, the reaction was stopped by adding 5 uL of a 3% (v/v) phosphoric acid solution.
as §4, §5

The next experiment concerns the target Human JAK3 (Homo sapiens (Human), UniProt P52333). Briefly: In vitro kinase inhibition test, JAK3 (33P-ATP filter scintillation). Particulars: compound at 1 uM; read-out: JAK3 kinase-phosphorylation inhibitory level (% inhibition). How it is done: as §1, §2, §6, §3, §7, §4, §5
In a further experiment the target is Human JAK2 (Homo sapiens (Human), UniProt O60674). Briefly: In vitro kinase inhibition test, JAK2 (33P-ATP filter scintillation). Particulars: compound at 1 uM; read-out: JAK2 kinase-phosphorylation inhibitory level (% inhibition). How it is done:
as §1, §2, §6, §3, §7, §4, §5

Chain of Human TYK2 (P29597 whole entry): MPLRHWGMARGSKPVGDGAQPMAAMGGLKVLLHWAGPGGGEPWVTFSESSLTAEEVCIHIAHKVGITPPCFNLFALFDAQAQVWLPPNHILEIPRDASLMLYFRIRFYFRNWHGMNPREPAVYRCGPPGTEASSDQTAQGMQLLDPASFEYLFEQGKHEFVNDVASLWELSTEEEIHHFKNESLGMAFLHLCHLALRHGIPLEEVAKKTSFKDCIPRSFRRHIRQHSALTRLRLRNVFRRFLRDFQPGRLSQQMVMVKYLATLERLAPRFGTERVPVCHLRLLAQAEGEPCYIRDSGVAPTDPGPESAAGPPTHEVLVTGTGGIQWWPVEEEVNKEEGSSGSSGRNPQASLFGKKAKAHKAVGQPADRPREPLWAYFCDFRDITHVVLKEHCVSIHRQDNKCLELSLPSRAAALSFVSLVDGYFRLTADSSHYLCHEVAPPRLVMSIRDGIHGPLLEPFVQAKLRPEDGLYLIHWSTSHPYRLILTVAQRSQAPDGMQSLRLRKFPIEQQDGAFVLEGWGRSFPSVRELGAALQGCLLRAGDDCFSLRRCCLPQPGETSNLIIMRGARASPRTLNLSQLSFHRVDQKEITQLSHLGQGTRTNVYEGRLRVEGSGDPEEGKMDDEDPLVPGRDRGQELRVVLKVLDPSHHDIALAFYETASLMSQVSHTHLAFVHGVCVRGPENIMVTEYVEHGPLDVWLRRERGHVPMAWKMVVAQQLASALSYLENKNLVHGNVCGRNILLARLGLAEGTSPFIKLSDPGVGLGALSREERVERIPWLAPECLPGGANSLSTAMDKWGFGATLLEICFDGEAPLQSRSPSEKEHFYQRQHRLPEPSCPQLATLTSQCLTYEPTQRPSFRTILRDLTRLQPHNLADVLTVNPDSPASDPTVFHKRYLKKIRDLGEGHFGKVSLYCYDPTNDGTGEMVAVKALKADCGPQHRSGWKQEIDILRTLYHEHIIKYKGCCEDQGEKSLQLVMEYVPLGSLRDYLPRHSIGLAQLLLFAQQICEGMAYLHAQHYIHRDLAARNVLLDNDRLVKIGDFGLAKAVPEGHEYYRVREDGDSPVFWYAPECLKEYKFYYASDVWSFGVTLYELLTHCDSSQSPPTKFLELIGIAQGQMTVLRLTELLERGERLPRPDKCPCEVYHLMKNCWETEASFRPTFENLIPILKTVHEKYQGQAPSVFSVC
Chain of Human JAK2 (O60674 whole entry): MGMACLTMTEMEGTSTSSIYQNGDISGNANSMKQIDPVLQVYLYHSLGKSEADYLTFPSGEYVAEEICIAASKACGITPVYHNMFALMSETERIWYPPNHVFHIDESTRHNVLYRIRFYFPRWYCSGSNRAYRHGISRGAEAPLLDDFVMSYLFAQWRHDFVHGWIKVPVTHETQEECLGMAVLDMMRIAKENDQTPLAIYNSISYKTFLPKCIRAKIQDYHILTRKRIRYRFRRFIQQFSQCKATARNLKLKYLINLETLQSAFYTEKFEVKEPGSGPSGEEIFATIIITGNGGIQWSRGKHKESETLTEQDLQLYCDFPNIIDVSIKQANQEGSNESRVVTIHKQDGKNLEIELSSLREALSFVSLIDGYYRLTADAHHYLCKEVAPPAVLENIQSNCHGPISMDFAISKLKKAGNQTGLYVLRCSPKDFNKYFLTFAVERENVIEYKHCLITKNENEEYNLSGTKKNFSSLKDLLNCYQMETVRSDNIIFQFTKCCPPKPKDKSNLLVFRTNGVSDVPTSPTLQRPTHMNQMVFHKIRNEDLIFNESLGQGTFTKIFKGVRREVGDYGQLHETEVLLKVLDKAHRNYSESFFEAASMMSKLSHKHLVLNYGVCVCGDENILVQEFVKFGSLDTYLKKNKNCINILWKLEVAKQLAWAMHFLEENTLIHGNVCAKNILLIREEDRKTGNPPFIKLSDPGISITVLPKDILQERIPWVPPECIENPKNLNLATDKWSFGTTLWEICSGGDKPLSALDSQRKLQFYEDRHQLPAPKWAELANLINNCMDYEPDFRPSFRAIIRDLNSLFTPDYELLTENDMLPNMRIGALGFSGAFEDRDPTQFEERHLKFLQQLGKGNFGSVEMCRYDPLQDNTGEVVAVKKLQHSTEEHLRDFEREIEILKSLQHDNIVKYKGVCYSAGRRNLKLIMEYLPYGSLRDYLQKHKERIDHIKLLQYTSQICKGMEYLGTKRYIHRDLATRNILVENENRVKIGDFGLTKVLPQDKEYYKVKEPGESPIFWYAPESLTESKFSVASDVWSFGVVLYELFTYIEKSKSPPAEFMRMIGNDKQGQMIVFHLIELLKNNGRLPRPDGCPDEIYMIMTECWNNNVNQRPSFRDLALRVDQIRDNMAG
Chain of Human JAK3 (P52333 whole entry): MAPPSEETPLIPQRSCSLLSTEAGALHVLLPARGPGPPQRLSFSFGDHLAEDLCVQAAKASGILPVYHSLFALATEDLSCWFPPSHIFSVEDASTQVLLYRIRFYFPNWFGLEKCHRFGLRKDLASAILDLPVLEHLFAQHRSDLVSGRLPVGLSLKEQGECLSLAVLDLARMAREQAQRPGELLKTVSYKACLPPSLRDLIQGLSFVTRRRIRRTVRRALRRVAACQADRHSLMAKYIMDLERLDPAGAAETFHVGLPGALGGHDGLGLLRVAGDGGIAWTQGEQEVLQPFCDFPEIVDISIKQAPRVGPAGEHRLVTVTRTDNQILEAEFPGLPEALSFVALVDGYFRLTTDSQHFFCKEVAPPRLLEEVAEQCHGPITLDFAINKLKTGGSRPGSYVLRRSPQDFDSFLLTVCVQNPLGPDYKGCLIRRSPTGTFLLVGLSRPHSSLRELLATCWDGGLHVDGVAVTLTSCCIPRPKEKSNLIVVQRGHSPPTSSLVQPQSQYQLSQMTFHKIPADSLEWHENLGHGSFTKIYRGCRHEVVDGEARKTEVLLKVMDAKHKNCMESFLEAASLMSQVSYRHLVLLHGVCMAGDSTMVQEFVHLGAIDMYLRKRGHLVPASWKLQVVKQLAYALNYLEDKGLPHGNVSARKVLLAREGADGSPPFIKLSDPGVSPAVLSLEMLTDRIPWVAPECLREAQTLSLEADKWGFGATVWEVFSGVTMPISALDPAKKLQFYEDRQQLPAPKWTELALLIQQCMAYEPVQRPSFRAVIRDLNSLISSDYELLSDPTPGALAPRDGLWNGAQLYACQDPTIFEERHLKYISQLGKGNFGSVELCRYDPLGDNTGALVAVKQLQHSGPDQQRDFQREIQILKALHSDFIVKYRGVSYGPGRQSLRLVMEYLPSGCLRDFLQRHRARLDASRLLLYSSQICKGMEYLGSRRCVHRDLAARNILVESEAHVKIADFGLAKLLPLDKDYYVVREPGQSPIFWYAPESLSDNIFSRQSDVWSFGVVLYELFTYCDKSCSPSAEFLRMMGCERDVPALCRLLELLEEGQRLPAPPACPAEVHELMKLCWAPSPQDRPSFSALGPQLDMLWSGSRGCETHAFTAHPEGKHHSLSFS
Chain of Human JAK1 (P23458 whole entry): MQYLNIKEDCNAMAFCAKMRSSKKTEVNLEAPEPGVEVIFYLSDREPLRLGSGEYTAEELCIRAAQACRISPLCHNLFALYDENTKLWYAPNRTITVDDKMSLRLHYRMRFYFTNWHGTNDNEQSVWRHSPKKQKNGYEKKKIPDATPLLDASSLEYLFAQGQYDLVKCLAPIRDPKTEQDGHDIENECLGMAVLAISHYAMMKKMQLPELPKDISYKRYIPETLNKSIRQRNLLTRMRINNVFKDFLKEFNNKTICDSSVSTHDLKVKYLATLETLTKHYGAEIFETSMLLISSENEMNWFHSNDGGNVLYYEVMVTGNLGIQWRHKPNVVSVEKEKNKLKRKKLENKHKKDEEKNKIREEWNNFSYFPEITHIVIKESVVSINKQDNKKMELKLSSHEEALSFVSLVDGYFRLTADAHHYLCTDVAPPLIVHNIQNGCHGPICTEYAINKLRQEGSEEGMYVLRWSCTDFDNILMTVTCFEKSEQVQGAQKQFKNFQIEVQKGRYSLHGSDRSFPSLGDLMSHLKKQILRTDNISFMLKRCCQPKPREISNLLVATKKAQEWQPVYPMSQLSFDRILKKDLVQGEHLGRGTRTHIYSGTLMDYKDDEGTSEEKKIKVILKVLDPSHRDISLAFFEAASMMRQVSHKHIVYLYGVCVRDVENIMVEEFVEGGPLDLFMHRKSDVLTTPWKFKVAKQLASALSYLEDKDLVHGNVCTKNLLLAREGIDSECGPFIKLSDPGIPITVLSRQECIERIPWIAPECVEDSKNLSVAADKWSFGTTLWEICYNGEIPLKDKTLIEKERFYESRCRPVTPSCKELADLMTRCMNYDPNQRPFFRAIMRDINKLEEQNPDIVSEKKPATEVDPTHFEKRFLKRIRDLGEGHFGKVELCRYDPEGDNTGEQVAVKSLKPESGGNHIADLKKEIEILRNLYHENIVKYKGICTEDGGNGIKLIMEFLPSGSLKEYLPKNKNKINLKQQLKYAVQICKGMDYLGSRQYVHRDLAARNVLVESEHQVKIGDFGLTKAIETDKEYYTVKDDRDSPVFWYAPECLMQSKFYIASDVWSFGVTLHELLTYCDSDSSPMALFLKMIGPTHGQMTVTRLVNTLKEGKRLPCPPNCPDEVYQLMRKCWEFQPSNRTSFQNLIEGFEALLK

Turning to `CCCCN1C[C@H](N(C)c2ncnc3[nH]ccc23)C2(CC2)C1` [Example 1, (R)-N-(5-butyl-5-azaspiro[2.4]heptan-7-yl)-N-methyl-7H-pyrrolo[2,3-d]pyrimidin-4-amine], the inhibition at 1 µM at Human JAK1 is 79%; at Human TYK2, -4%; at Human JAK3 it was 8%; at Human JAK2, -14%.
For `CCCCCN1C[C@H](N(C)c2ncnc3[nH]ccc23)C2(CC2)C1` [Example 2, (R)-N-methyl-N-(5-pentyl-5-azaspiro[2.4]heptan-7-yl)-7H-pyrrolo[2,3-d]pyrimidin-4-amine] the same measures were 77%, 3%, 7% and -19%.
Take `CC(C)C(=O)N1C[C@H](N(C)c2ncnc3[nH]ccc23)C2(CC2)C1` [Example 3, (R)-2-methyl-1-(7-(methyl(7H-pyrrolo[2,3-d]pyrimidin-4-yl)amino)-5-azaspiro[2.4]heptan-5-yl)propan-1-one]: the inhibition at 1 µM on Human JAK1 is 83%; on Human TYK2, 49%; at Human JAK3, 16%; on Human JAK2, 25%.
Taken in the same sequence, the figures for `CN(c1ncnc2[nH]ccc12)[C@H]1CN(C(=O)CN=[N+]=[N-])CC12CC2` [Example 4, (R)-2-azido-1-(7-(methyl(7H-pyrrolo[2,3-d]pyrimidin-4-yl)amino)-5-azaspiro[2.4]heptan-5-yl)ethan-1-one] were 95%, 78%, 57% and 72%.
On to `CC(C)CC(=O)N1C[C@H](N(C)c2ncnc3[nH]ccc23)C2(CC2)C1` [Example 6, (R)-3-methyl-1-(7-(methyl(7H-pyrrolo[2,3-d]pyrimidin-4-yl)amino)-5-azaspiro[2.4]heptan-5-yl)butan-1-one], for which the inhibition at 1 µM at Human JAK1 amounted to 90%; on Human TYK2 it was 46%; at Human JAK3 it was 18%; at Human JAK2 it was 21%.
As to `CC(=O)NCC(=O)N1C[C@H](N(C)c2ncnc3[nH]ccc23)C2(CC2)C1` [Example 7, (R)-N-(2-(7-(methyl(7H-pyrrolo[2,3-d]pyrimidin-4-yl)amino)-5-azaspiro[2.4]heptan-5-yl)-2-oxoethyl)acetamide], the inhibition at 1 µM at Human JAK1 was 70%; at Human TYK2, 8%; at Human JAK3, 8%; at Human JAK2 it was -17%.
Consider `CNC(=O)CC(=O)N1C[C@H](N(C)c2ncnc3[nH]ccc23)C2(CC2)C1` [Example 8, (R)-N-methyl-3-(7-(methyl(7H-pyrrolo[2,3-d]pyrimidin-4-yl)amino)-5-azaspiro[2.4]heptan-5-yl)-3-oxopropanamide], for which the inhibition at 1 µM on Human JAK1 was 61%; at Human TYK2 it was 11%; at Human JAK3, 3%; on Human JAK2, -7%.
For `CN(c1ncnc2[nH]ccc12)[C@H]1CN(C(=O)C2CC2)CC12CC2` [Example 9, (R)-cyclopropyl(7-(methyl(7H-pyrrolo[2,3-d]pyrimidin-4-yl)amino)-5-azaspiro[2.4]heptan-5-yl)methanone] the same measures were 90%, 70%, 13% and 10%.
Taken in the same sequence, the figures for `CC(=O)N1CCC(C(=O)N2C[C@H](N(C)c3ncnc4[nH]ccc34)C3(CC3)C2)CC1` [Example 10, (R)-1-(4-(7-(methyl(7H-pyrrolo[2,3-d]pyrimidin-4-yl)amino)-5-azaspiro[2.4]heptane-5-carbonyl)piperidin-1-yl)ethan-1-one] were 88%, 52%, 23% and 2%.
Taken in the same sequence, the figures for `CN(c1ncnc2[nH]ccc12)[C@H]1CN(C(=O)c2ccco2)CC12CC2` [Example 11, (R)-furan-2-yl(7-(methyl(7H-pyrrolo[2,3-d]pyrimidin-4-yl)amino)-5-azaspiro[2.4]heptan-5-yl)methanone] were 93%, 61%, 15% and 10%.
On to `CN(c1ncnc2[nH]ccc12)[C@H]1CN(C(=O)c2cccnc2)CC12CC2` [Example 12, (R)-(7-(methyl(7H-pyrrolo[2,3-d]pyrimidin-4-yl)amino)-5-azaspiro[2.4]heptan-5-yl)(pyridin-3-yl)methanone], for which the inhibition at 1 µM was 80% at Human JAK1, 26% at Human TYK2, 2% at Human JAK3 and -11% on Human JAK2.
Taken in the same sequence, the figures for `CN(c1ncnc2[nH]ccc12)[C@H]1CN(C(=O)c2ccccc2)CC12CC2` [Example 13, (R)-(7-(methyl(7H-pyrrolo[2,3-d]pyrimidin-4-yl)amino)-5-azaspiro[2.4]heptan-5-yl)(phenyl)methanone] were 81%, 30%, 13% and -11%.
Taken in the same sequence, the figures for `CN(c1ncnc2[nH]ccc12)[C@H]1CN(C(=O)c2ccncc2)CC12CC2` [Example 14, (R)-(7-(methyl(7H-pyrrolo[2,3-d]pyrimidin-4-yl)amino)-5-azaspiro[2.4]heptan-5-yl)(pyridin-4-yl)methanone] were 84%, 15%, 12% and -14%.
For `CN(c1ncnc2[nH]ccc12)[C@H]1CN(C(=O)c2cccc(C#N)c2)CC12CC2` [Example 15, (R)-3-(7-(methyl(7H-pyrrolo[2,3-d]pyrimidin-4-yl)amino)-5-azaspiro[2.4]heptane-5-carbonyl)benzonitrile] the same measures were 76%, 43%, 13% and -15%.
On to `CN(c1ncnc2[nH]ccc12)[C@H]1CN(C(=O)c2ccc(C#N)cc2)CC12CC2` [Example 16, (R)-4-(7-(methyl(7H-pyrrolo[2,3-d]pyrimidin-4-yl)amino)-5-azaspiro[2.4]heptane-5-carbonyl)benzonitrile], for which the inhibition at 1 µM on Human JAK1 was found to be 79%; on Human TYK2 it was 23%; at Human JAK3, 15%; at Human JAK2, 13%.
Taken in the same sequence, the figures for `CN(c1ncnc2[nH]ccc12)[C@H]1CN(C(=O)c2ccccc2C(F)(F)F)CC12CC2` [Example 17, (R)-(7-(methyl(7H-pyrrolo[2,3-d]pyrimidin-4-yl)amino)-5-azaspiro[2.4]heptan-5-yl)(2-(trifluoromethyl)phenyl)methanone] were 65%, 39%, -1% and -14%.
For `CN(c1ncnc2[nH]ccc12)[C@H]1CN(C(=O)c2cccc(C(F)(F)F)c2)CC12CC2` [Example 18, (R)-(7-(methyl(7H-pyrrolo[2,3-d]pyrimidin-4-yl)amino)-5-azaspiro[2.4]heptan-5-yl)(3-(trifluoromethyl)phenyl)methanone] the same measures were 71%, 37%, 5% and -17%.
Taken in the same sequence, the figures for `CN(c1ncnc2[nH]ccc12)[C@H]1CN(C(=S)CC#N)CC12CC2` [Example 19, (R)-3-(7-(methyl(7H-pyrrolo[2,3-d]pyrimidin-4-yl)amino)-5-azaspiro[2.4]heptan-5-yl)-3-thioxopropanenitrile] were 98%, 91%, 82% and 80%.
With `CC(C)COC(=O)N1C[C@H](N(C)c2ncnc3[nH]ccc23)C2(CC2)C1` [Example 20, isobutyl (R)-7-(methyl(7H-pyrrolo[2,3-d]pyrimidin-4-yl)amino)-5-azaspiro[2.4]heptane-5-carboxylate], the inhibition at 1 µM on Human JAK1 was determined as 93%; on Human TYK2, 43%; on Human JAK3, 27%; at Human JAK2, 27%.
